From ChEMBL document CHEMBL5154884, “Discovery of a Novel Src Homology-2 Domain Containing Protein Tyrosine Phosphatase-2 (SHP2) and Cyclin-Dependent Kinase 4 (CDK4) Dual Inhibitor for the Treatment of Triple-Negative Breast Cancer” (J Med Chem, 2022)
pIC50: −log10 of the molar value.

How the values were obtained:
[1] = biological target: CDK4/Cyclin D3 (Homo sapiens, UniProt P11802); test: Inhibition of recombinant N-terminal GST/His6-fusion tagged human CDK4/Cyclin D3 expressed in Sf9 insect cells using 5-FAM-IPTSPITTTYFFFKKK as substrate preincubated for 10 mins followed by substrate addition and incubated for 3 hrs in presence of ATP by caliper mobility shift analysis
Chain of CDK4/Cyclin D3 (P11802 whole entry, the tested form may be a part): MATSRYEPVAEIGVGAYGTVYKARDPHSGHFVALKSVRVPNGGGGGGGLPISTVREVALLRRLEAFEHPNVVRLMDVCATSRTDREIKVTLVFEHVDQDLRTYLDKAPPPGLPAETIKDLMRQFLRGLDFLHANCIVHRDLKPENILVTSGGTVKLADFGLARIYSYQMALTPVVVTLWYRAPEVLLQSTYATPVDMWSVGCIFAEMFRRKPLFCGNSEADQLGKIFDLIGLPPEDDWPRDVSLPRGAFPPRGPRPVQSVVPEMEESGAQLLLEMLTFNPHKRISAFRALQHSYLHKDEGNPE
Chain of CDK4/Cyclin D3 (P30281 whole entry, further chain, the tested form may be a part): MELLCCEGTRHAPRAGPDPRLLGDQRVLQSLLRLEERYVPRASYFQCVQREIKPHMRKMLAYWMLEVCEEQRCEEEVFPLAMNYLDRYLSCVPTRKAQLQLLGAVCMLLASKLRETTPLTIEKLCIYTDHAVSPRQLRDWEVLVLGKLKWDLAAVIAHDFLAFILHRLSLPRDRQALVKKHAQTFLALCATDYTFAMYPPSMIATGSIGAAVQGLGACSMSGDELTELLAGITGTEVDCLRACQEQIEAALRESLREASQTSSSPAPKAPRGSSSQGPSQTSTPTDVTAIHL

[2] = biological target: T1, Tyrosine-protein phosphatase non-receptor type 11 (Homo sapiens, UniProt Q06124); test: Inhibition of SHP2 (unknown origin) using DiFMUP as substrate incubated for 60 mins followed by substrate addition for 30 mins by microplate reader method
T1 sequence (Q06124 whole entry): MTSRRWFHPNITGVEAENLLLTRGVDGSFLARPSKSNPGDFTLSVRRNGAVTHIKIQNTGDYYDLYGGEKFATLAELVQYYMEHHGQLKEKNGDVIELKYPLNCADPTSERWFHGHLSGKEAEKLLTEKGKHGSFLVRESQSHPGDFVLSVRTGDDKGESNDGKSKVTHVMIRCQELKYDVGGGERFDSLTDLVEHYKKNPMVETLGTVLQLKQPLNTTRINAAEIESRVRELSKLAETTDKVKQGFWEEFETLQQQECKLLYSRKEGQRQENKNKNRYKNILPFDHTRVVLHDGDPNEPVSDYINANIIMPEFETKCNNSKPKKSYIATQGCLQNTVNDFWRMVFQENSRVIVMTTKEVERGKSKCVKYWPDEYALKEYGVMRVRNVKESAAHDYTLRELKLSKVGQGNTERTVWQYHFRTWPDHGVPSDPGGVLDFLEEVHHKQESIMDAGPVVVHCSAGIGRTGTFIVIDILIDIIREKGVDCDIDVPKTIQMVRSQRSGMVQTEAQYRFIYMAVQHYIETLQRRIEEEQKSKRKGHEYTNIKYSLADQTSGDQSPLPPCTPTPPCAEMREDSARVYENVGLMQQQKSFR

[3] = tested on: MDA-MB-231; test: Antiproliferative activity against human MDA-MB-231 cells assessed as inhibition of cell growth incubated for 48 hrs by MTT assay; assay type: functional, cell-based
[4] = tested on: MDA-MB-468; test: Antiproliferative activity against human MDA-MB-468 cells assessed as inhibition of cell growth incubated for 48 hrs by MTT assay; assay type: functional, cell-based
[5] = tested on: EMT6; test: Antiproliferative activity against mouse EMT6 cells assessed as inhibition of cell growth incubated for 48 hrs by MTT assay; assay type: functional, cell-based
[6] = tested on: MDA-MB-231; test: Induction of cell cycle arrest in human MDA-MB-231 cells assessed as accumulation of cells in G0/G1 phase at 3 uM incubated for 48 hrs by RNase/propidium iodide staining based flow cytometry analysis (reference value: 26.2%); assay type: functional
[7] = tested on: MDA-MB-231; test: Induction of apoptosis in human MDA-MB-231 cells assessed as viable cells at 3 uM measured after 48 hrs by Annexin V-FITC/PI staining based flow cytometric analysis (reference value: 98.04%); assay type: functional; settings: read-out: Activity
[8] = tested on: MDA-MB-231; test: Induction of cell cycle arrest in human MDA-MB-231 cells assessed as accumulation of cells in G2/M phase at 3 uM incubated for 48 hrs by RNase/propidium iodide staining based flow cytometry analysis (reference value: 2.7%); assay type: functional
[9] = tested on: EMT6; test: Antitumor activity against mouse EMT6 cells implanted in BALB/c mouse syngenic model assessed as tumor growth inhibition at 40 mg/kg, po qd and measured after 18 days relative to control; assay type: functional; settings: EMT6, 432 h, time 18 day, read-out: TGI
[10] = tested on: MDA-MB-231; test: Induction of apoptosis in human MDA-MB-231 cells assessed as necrotic cells at 3 uM measured after 48 hrs by Annexin V-FITC/PI staining based flow cytometric analysis (reference value: 0.58%); assay type: functional
[11] = tested on: MDA-MB-231; test: Induction of apoptosis in human MDA-MB-231 cells assessed as early apoptotic cells at 3 uM measured after 48 hrs by Annexin V-FITC/PI staining based flow cytometric analysis (reference value: 0.32%); assay type: functional
[12] = tested on: MDA-MB-231; test: Induction of cell cycle arrest in human MDA-MB-231 cells assessed as accumulation of cells in S phase at 3 uM incubated for 48 hrs by RNase/propidium iodide staining based flow cytometry analysis (reference value: […]); assay type: functional
[13] = tested on: MDA-MB-231; test: Induction of apoptosis in human MDA-MB-231 cells assessed as late apoptotic cells at 3 uM measured after 48 hrs by Annexin V-FITC/PI staining based flow cytometric analysis (reference value: 1.06%); assay type: functional
[14] = tested on: MDA-MB-231; test: Induction of cell cycle arrest in human MDA-MB-231 cells assessed as accumulation of cells in G0/G1 phase at 3 uM incubated for 48 hrs in presence of abemaciclib by RNase/propidium iodide staining based flow cytometry analysis (reference value: 26.2%); assay type: functional
[15] = tested on: MDA-MB-231; test: Induction of cell cycle arrest in human MDA-MB-231 cells assessed as accumulation of cells in G2/M phase at 3 uM incubated for 48 hrs in presence of abemaciclib by RNase/propidium iodide staining based flow cytometry analysis (reference value: 2.7%); assay type: functional
[16] = tested on: MDA-MB-231; test: Induction of cell cycle arrest in human MDA-MB-231 cells assessed as accumulation of cells in S phase at 3 uM incubated for 48 hrs in presence of abemaciclib by RNase/propidium iodide staining based flow cytometry analysis (reference value: […]); assay type: functional
[17] = tested on: MDA-MB-231; test: Induction of apoptosis in human MDA-MB-231 cells assessed as viable cells at 3 uM incubated for 48 hrs in presence of abemaciclib by Annexin V-FITC/PI staining based flow cytometric analysis (reference value: 98.04%); assay type: functional; settings: read-out: Activity
[18] = tested on: EMT6; test: Antitumor activity in mouse EMT6 cells implanted in BALB/c syngenic mouse model assessed as tumor growth inhibition at 40 mg/kg, po qd in presence of abemaciclib measured after 18 days relative to control; assay type: functional; settings: EMT6, 432 h, time 18 day, read-out: TGI
[19] = tested on: MDA-MB-231; test: Induction of apoptosis in human MDA-MB-231 cells assessed as early apoptotic cells at 3 uM incubated for 48 hrs in presence of abemaciclib by Annexin V-FITC/PI staining based flow cytometric analysis (reference value: 0.32%); assay type: functional
[20] = tested on: MDA-MB-468
[21] = tested on: MDA-MB-231
[22] = tested on: EMT6
[23] = tested on: MDA-MB-231; test: Induction of apoptosis in human MDA-MB-231 cells assessed as necrotic cells at 3 uM incubated for 48 hrs in presence of abemaciclib by Annexin V-FITC/PI staining based flow cytometric analysis (reference value: 0.58%); assay type: functional
[24] = tested on: MDA-MB-231; test: Induction of apoptosis in human MDA-MB-231 cells assessed as late apoptotic cells at 3 uM incubated for 48 hrs in presence of abemaciclib by Annexin V-FITC/PI staining based flow cytometric analysis (reference value: 1.06%); assay type: functional

Cc1nc2c(F)cc(-c3nc(Nc4ccc(Sc5cnc(N6CCC7(CC6)CO[C@@H](C)[C@H]7N)cn5)c(Cl)n4)ncc3F)cc2n1C(C)C
pIC50 [1]: 6.86

CN(C)C(=O)c1cc2cnc(Nc3ccc(Sc4cnc(N5CCC6(CC5)Cc5ccccc5[C@H]6N)cn4)c(Cl)c3)nc2n1C1CCCC1
pIC50 [2]: 7.28 | pIC50 [1]: < 6.00

Cc1nc2c(F)cc(-c3nc(Nc4cc(Cl)c(Sc5cnc(N6CCC7(CC6)CO[C@@H](C)[C@H]7N)cn5)cn4)ncc3F)cc2n1C(C)C
pIC50 [1]: 8.06

Cc1nc2c(F)cc(-c3nc(Nc4ccc(Cl)c(Sc5cnc(N6CCC7(CC6)CO[C@@H](C)[C@H]7N)cn5)n4)ncc3F)cc2n1C(C)C
pIC50 [2]: 6.21 | pIC50 [1]: 6.67

Cc1nc2c(F)cc(-c3nc(Nc4cccc(Sc5cnc(N6CCC7(CC6)CO[C@@H](C)[C@H]7N)cn5)c4Cl)ncc3F)cc2n1C(C)C
pIC50 ([3]; Homo sapiens, MDA-MB-231, 48 h): 5.34 | pIC50 [2]: 7.78 | pIC50 [1]: 8.17 | pIC50 ([4]; Homo sapiens, MDA-MB-468, 48 h): 5.04 | pIC50 ([5]; Mus musculus, EMT6, 48 h): 6.24

Cc1nc2c(F)cc(-c3nc(Nc4cc(Sc5cnc(N6CCC7(CC6)CO[C@@H](C)[C@H]7N)cn5)c(Cl)cn4)ncc3F)cc2n1C(C)C
pIC50 [1]: < 6.00

Cc1nc2c(F)cc(-c3nc(Nc4cc(Sc5cnc(N6CCC7(CC6)CO[C@@H](C)[C@H]7N)cn5)ccn4)ncc3F)cc2n1C(C)C
pIC50 ([3]; Homo sapiens, MDA-MB-231, 48 h): 5.29 | pIC50 [2]: 7.33 | pIC50 [1]: 7.79 | pIC50 ([4]; Homo sapiens, MDA-MB-468, 48 h): 5.02 | pIC50 ([5]; Mus musculus, EMT6, 48 h): 5.96

Cc1nc2c(F)cc(-c3nc(Nc4nccc(Sc5cnc(N6CCC7(CC6)Cc6ccccc6[C@H]7N)cn5)c4Cl)ncc3F)cc2n1C(C)C
pIC50 ([3]; Homo sapiens, MDA-MB-231, 48 h): 5.35 | pIC50 [2]: 8.09 | pIC50 [1]: 7.02 | pIC50 ([4]; Homo sapiens, MDA-MB-468, 48 h): 5.41 | pIC50 ([5]; Mus musculus, EMT6, 48 h): 5.97

Cc1nc2c(F)cc(-c3nc(Nc4ccc(Sc5cnc(N6CCC7(CC6)CO[C@@H](C)[C@H]7N)cn5)c(Cl)c4)ncc3F)cc2n1C(C)C
pIC50 ([3]; Homo sapiens, MDA-MB-231, 48 h): 5.49 | pIC50 [1]: 8.15 | pIC50 ([4]; Homo sapiens, MDA-MB-468, 48 h): 4.99 | pIC50 ([5]; Mus musculus, EMT6, 48 h): 5.78

CN(C)C(=O)c1cc2cnc(Nc3nccc(Sc4cnc(N5CCC6(CC5)Cc5ccccc5[C@H]6N)cn4)c3Cl)nc2n1C1CCCC1
pIC50 [2]: 8.49 | pIC50 [1]: < 6.00

CN(C)C(=O)c1cc2cnc(Nc3nccc(Sc4cnc(N5CCC(C)(N)CC5)cn4)c3Cl)nc2n1C1CCCC1
pIC50 [2]: 7.50 | pIC50 [1]: 6.35

CCN1CCN(Cc2ccc(Nc3ncc(F)c(-c4cc(F)c5nc(C)n(C(C)C)c5c4)n3)nc2)CC1 [ABEMACICLIB]
Activity [6]: 37.1% | pIC50 ([3]; Homo sapiens, MDA-MB-231, 48 h): < 4.70 | viability at 3 µM [7]: 86% | Activity [8]: 2.7% | inhibition in vivo at 40 mg/kg [9]: 35% | pIC50 ([4]; Homo sapiens, MDA-MB-468, 48 h): < 4.70 | Activity [10]: 1.42% | Activity [11]: 5.86% | pIC50 ([5]; Mus musculus, EMT6, 48 h): 5.38 | Activity [12]: 60.2% | Activity [13]: 6.73%

CN(C)C(=O)c1cc2cnc(Sc3cnc(N4CCC(C)(N)CC4)cn3)nc2n1C1CCCC1
pIC50 [2]: < 6.00 | pIC50 [1]: < 6.00

CN(C)C(=O)c1cc2cnc(Nc3ccc(Sc4cnc(N5CCC6(CC5)Cc5ccccc5[C@H]6N)cn4)c(Cl)n3)nc2n1C1CCCC1
pIC50 [2]: 7.47 | pIC50 [1]: 6.28

Cc1nc2c(F)cc(-c3nc(Nc4cnc(Sc5cnc(N6CCC7(CC6)CO[C@@H](C)[C@H]7N)cn5)c(Cl)c4)ncc3F)cc2n1C(C)C
pIC50 [2]: 6.69 | pIC50 [1]: 8.04

Cc1nc2c(F)cc(-c3nc(Nc4ccc(Sc5cnc(N6CCC7(CC6)Cc6ccccc6[C@H]7N)cn5)c(Cl)n4)ncc3F)cc2n1C(C)C
pIC50 [2]: 6.17 | pIC50 [1]: 6.35

C[C@@H]1OCC2(CCN(c3cnc(Sc4ccnc(N)c4Cl)c(N)n3)CC2)[C@@H]1N [BATOPROTAFIB]
Activity [6]: 40.7% | pIC50 ([3]; mda-mb-231): < 4.70 | viability at 3 µM [7]: 82.5% | Activity [8]: 2.6% | Activity [14]: 44.8% | Activity [15]: 2% | Activity [16]: 53.2% | viability at 3 µM [17]: 78.5% | inhibition in vivo at 40 mg/kg [18]: 74% | inhibition in vivo at 40 mg/kg [9]: 60% | Activity [19]: 8.17% | pIC50 [20]: 5.51 | pIC50 ([4]; mda-mb-468): < 4.70 | Activity [10]: 1.07% | pIC50 [21]: 4.89 | Activity [11]: 7.32% | pIC50 ([5]; emt6): 5.15 | pIC50 [22]: 5.60 | Activity [23]: 0.95% | Activity [24]: 12.42% | Activity [12]: 56.7% | Activity [13]: 9.13%

CN(C)C(=O)c1cc2cnc(Nc3ccc(Sc4cnc(N5CCC(C)(N)CC5)cn4)cn3)nc2n1C1CCCC1
pIC50 [1]: 8.09

CN(C)C(=O)c1cc2cnc(Nc3ccc(Sc4cnc(N5CCC(C)(N)CC5)cn4)c(Cl)n3)nc2n1C1CCCC1
pIC50 [1]: 7.29
